Where a name gives a salt, the structure may show the parent alone.
Each compound was assayed against human recombinant LRRK2 protein (Homo sapiens, UniProt Q5S007) (assay: LRRK2 kinase activity assay (ADP-Glo, LRRKtide peptide)). Details: human recombinant LRRK2 wt, LRRKtide peptide and ATP, 1 h at 37° C.
Assay type: biochemical
Summary of the method: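 Human recombinant LRRK2 reacted with LRRKtide peptide and ATP for 1 h at 37 °C in the presence of compound. ADP formed measured by ADP-Glo luminescence; IC50 fitted from 10 concentrations run in duplicate.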

Sequence of human recombinant LRRK2 protein (Q5S007 whole entry): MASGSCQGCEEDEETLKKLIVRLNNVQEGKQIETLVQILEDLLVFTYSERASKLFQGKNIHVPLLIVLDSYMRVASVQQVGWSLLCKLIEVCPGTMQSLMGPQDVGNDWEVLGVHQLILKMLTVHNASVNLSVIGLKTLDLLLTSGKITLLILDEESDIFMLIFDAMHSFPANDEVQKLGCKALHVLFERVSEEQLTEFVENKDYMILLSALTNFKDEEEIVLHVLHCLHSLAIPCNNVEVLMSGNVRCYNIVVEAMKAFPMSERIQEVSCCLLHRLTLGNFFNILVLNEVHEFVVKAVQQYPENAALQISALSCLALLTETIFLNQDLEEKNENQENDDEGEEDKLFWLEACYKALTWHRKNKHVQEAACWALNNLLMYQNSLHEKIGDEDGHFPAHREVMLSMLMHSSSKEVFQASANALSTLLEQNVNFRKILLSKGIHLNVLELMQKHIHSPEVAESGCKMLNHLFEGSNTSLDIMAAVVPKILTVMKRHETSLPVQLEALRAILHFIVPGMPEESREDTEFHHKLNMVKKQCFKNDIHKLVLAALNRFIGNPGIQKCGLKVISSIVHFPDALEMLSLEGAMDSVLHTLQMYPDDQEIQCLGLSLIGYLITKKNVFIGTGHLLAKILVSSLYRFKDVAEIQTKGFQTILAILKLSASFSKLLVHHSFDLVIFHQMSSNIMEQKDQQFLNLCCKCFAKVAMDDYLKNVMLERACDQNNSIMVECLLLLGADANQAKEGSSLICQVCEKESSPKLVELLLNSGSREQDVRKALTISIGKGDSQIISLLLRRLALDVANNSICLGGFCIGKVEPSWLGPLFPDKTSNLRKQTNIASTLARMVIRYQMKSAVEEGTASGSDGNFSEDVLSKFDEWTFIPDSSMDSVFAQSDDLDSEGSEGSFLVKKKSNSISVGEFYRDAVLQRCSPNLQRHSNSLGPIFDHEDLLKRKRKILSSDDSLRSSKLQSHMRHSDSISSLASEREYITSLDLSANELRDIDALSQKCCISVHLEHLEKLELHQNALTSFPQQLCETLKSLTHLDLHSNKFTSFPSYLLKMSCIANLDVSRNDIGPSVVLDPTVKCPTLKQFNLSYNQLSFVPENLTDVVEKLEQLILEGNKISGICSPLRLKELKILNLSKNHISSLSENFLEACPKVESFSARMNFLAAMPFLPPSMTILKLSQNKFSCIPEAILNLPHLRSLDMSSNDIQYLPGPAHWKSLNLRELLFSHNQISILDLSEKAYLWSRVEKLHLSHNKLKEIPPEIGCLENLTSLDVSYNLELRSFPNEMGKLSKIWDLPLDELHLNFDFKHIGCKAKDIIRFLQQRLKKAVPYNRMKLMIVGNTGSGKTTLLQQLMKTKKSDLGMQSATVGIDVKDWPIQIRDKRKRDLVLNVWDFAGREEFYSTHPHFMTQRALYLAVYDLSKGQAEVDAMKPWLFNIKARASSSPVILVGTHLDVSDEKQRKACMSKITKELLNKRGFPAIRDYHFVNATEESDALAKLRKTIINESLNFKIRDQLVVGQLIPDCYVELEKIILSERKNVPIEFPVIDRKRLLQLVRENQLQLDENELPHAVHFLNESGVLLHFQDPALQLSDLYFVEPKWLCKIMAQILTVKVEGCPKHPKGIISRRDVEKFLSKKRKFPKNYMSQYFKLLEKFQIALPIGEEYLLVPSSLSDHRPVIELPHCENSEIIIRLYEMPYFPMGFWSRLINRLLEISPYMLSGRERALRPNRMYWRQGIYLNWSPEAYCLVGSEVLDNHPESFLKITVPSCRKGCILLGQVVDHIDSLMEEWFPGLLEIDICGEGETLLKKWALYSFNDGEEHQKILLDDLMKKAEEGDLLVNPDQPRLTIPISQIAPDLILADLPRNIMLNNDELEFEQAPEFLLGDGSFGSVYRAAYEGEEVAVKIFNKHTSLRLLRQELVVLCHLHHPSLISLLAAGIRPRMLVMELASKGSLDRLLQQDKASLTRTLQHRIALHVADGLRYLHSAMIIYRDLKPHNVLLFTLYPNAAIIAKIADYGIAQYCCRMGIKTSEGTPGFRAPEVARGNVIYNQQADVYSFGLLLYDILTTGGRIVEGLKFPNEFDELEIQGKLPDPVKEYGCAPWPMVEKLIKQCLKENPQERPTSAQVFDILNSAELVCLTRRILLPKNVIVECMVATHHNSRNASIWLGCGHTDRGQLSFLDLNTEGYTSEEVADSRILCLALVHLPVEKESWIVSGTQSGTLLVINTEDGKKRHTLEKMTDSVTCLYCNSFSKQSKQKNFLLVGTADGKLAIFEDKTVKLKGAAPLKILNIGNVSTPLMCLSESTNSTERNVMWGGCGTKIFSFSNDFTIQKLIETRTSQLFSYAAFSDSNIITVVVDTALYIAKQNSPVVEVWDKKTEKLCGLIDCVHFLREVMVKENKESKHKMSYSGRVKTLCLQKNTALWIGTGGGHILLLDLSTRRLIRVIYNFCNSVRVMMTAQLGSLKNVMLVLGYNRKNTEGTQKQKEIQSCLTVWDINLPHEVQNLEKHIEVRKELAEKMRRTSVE

IC50	Compound
< 10 nM	C[C@@H]1CCNCCOc2cncc(c2)-c2n[nH]c3ccc(cc23)O1 [Example 163, (13R)-13-methyl-7,14-dioxa-4,10,19,20-tetraazatetracyclo[13.5.2.1^2,6.0^18,21]tricosa-1(20),2,4,6(23),15(22),16,18(21)-heptaene]
< 100 nM	C[C@@H]1COc2ccc3[nH]nc(c3c2)-c2cccc(c2)OCC(=O)N[C@H]1C [Example 168, (11S,12S)-11,12-dimethyl-7,14-dioxa-10,19,20-triazatetracyclo[13.5.2.1^2,6.0^18,21]tricosa-1(20),2(23),3,5,15(22),16,18(21)-heptaen-9-one]
< 10 nM	C[C@@H]1CCOCCOc2nccc(n2)-c2n[nH]c3ccc(cc23)O1 [Example 45, (13R)-13-methyl-7,10,14-trioxa-5,19,20,23-tetraazatetracyclo[13.5.2.1^2,6.0^18,21]tricosa-1(20),2(23),3,5, 15(22),16,18(21)-heptaene]
< 10 nM	O=C1CCc2cccc(c2)-c2n[nH]c3ccc(cc23)OCCCN1 [Example 166, 14-oxa-10,19,20-triazatetracyclo[13.5.2.1^2,6.0^18,21]tricosa-1(20),2(23),3,5,15(22),16,18(21)-heptaen-9-one]
< 10 nM	CC1(C)COCCCOc2ccc3[nH]nc(c3c2)-c2cnn(c2)C1 [Example 31, 7,7-dimethyl-9,13-dioxa-4,5,18,19-tetraazatetracyclo[12.5.2.1^2,5.0^17,20] docosa-1(19),2(22),3,14(21),15,17(20)-hexaene]
< 100 nM	O=C1COc2cncc(c2)-c2n[nH]c3ccc(cc23)OCCN1 [Example 199, 7,13-dioxa-4,10,18,19-tetraazatetracyclo[12.5.2.1^2,6.0^17,20] docosa-1(19),2(22),3,5,14(21),15,17(20)-heptaen-9-one]
< 100 nM	CC(C)Oc1cc2cc(c1)-c1n[nH]c3ccc(cc13)OCCCN(C)CCO2 [Example 239, 10-methyl-4-(propan-2-yloxy)-7,14-dioxa-10,19,20-triazatetracyclo[13.5.2.1^2,6.0^18,21]tricosa-1(20),2,4,6(23),15,17,21-heptaene]
< 10 nM	C[C@H]1CCn2cc(cn2)-c2n[nH]c3ccc(cc23)OCCCO1 [Example 37, (8S)-8-Methyl-9,13-dioxa-4,5,18,19-tetraazatetracyclo[12.5.2.1^2,5.0^17,20] docosa-1(19),2(22),3,14(21),15,17(20)-hexaene]
< 10 nM	Cc1cc2cc(c1)-c1n[nH]c3ccc(cc13)OCCCNCCO2 [Example 145, 4-methyl-7,14-dioxa-10,19,20-triazatetracyclo[13.5.2.1^2,6.0^18,21]tricosa-1(20),2(23),3,5,15,17,21-heptaene]
< 100 nM	C[C@@H]1C[C@H](C)OCCCOc2ccc3[nH]nc(c3c2)-c2cnn1c2 [Example 132, (6R,8S)-6,8-dimethyl-9,13-dioxa-4,5,18,19-tetraazatetracyclo[12.5.2.1^2,5.0^17,20]docosa-1(19),2(22),3,14(21),15,17(20)-hexaene]
< 10 nM	c1cc2[nH]nc3c2cc1OCCNCCCOc1cc-3cc(N2CCOCC2)c1 [Example 236, 4-(morpholin-4-yl)-7,14-dioxa-11,19,20-triazatetracyclo [13.5.2.1^2,6.0^18,21]tricosa-1(20),2,4,6(23),15,17,21-heptaene]
< 100 nM	C[C@@H]1COCCO[C@@H](C)c2cncc(c2)-c2n[nH]c3ccc(cc23)O1 [Example 14, (7S,13R)-7,13-dimethyl-8,11,14-trioxa-4,19,20-triazatetracyclo[13.5.2.1^2,6. 0^18,21]tricosa-1(20),2(23),3,5,15(22),16,18(21)-heptaene hydrochloride]
< 100 nM	COCC1CCOc2ccc3[nH]nc(c3c2)-c2cccc(c2)OCCN1 (single isomer, unassigned) [Example 151, (11S) or (11R)-11-(methoxymethyl)-7,14-dioxa-10,19,20-triazatetracyclo[13.5.2.1^2,6.0^18,21]tricosa-1(20),2(23),3,5,15,17,21-heptaene]
< 10 nM	c1cc2[nH]nc3c2cc1OCCOCCCOc1cc-3cc(N2CCOCC2)c1 [Example 3, 4-(morpholin-4-yl)-7,11,14-trioxa-19,20-diazatetracyclo[13.5.2.1^2,6.0^18,21] tricosa-1(20),2(23),3,5,15(22),16,18(21)-heptaene]
< 10 nM	C[C@@H]1CCNC(=O)C[C@H](C)n2ncc(n2)-c2n[nH]c3ccc(cc23)O1 [Example 242]
< 100 nM	C[C@@H]1CCOCC(F)(F)COc2ccc3[nH]nc(c3c2)-c2cnn1c2 [Example 109, (6R)-11,11-difluoro-6-methyl-9,13-dioxa-4,5,18,19-tetraazatetracyclo [12.5.2.1^2,5.0^17,20]docosa-1(19),2(22),3,14(21),15,17(20)-hexaene]

IC50	Compound
< 10 nM	O=C1COc2cncc(c2)-c2n[nH]c3ccc(cc23)OCCCN1 [Example 136, 7,14-dioxa-4,10,19,20-tetraazatetracyclo[13.5.2.1^2,6.0^18,21]tricosa-1(20),2,4,6(23),15,17,21-heptaen-9-one]
< 100 nM	C[C@H]1COc2cncc(n2)-c2n[nH]c3ccc(cc23)O[C@@H](C)CCO1 [Example 51, (9S,13S)-9,13-dimethyl-7,10,14-trioxa-4,19,20,23-tetraazatetracyclo[13.5.2.1^2,6.0^18,21]tricosa-1(20),2(23),3,5,15(22),16,18(21)-heptaene]
< 100 nM	C[C@@H]1CCO[C@@H](C)CCOc2ccc3[nH]nc(c3c2)-c2cnn1c2 [Example 116, (6R,10S)-6,10-dimethyl-9,13-dioxa-4,5,18,19-tetraazatetracyclo[12.5.2.1^2,5.0^17,20]docosa-1(19),2(22),3,14(21),15,17(20)-hexaene]
< 10 nM	C[C@@H]1CCOc2ccc3[nH]nc(c3c2)-c2cnn(c2)[C@H](C)CCO1 [Example 123, (6R,10R)-6,10-dimethyl-9,13-dioxa-4,5,18,19-tetraazatetracyclo[12.5.2.1^2,5.0^17,20]docosa-1(19),2(22),3,14(21),15,17(20)-hexaene]
< 100 nM	C[C@@H]1COc2cncc(n2)-c2n[nH]c3ccc(cc23)O[C@@H](C)CCO1 [Example 58, (9R,13S)-9,13-dimethyl-7,10,14-trioxa-4,19,20,23-tetraazatetracyclo[13.5.2.1^2,6.0^18,21]tricosa-1(20),2(23),3,5,15(22),16,18(21)-heptaene]
< 100 nM	C[C@H]1CCOCCOc2nccc(n2)-c2n[nH]c3ccc(cc23)N1 [Example 30, (13S)-13-methyl-7,10-dioxa-5,14,19,20,23-pentaazatetracyclo[13.5.2.1^2,6.0^18,21]tricosa-1(20),2(23),3,5,15(22),16,18(21)-heptaene]
< 10 nM	C[C@@H]1OCCOCCn2cc(cn2)-c2n[nH]c3ccc(cc23)O[C@@H]1C [Example 99, (12S,13R)-12,13-dimethyl-8,11,14-trioxa-4,5,19,20-tetraazatetracyclo[13.5.2.1^2,5.0^18,21]tricosa-1(20),2(23),3,15(22),16,18(21)-hexaene]
< 10 nM	C[C@@H]1CCOCCOCC2=NC=C(S2)c2n[nH]c3ccc(cc23)O1 [Example 75, (13R)-13-methyl-7,10,14-trioxa-23-thia-4,19,20-triazatetracyclo[13.5.2.1^2,5.0^18,21]tricosa-1(20),2,4,15(22),16,18(21)-hexaene]
< 10 nM	C[C@H]1COCCCOc2nccc(n2)-c2n[nH]c3ccc(cc23)O1 [Example 26, (13S)-13-methyl-7,11,14-trioxa-5,19,20,23-tetraazatetracyclo[13.5.2.1^2,6.0^18,21]tricosa-1(20),2(23),3,5,15(22),16,18(21)-heptaene]
< 10 nM	c1cc2cc(c1)-c1n[nH]c3ccc(cc13)OCCCNCCC2 [Example 167, 14-oxa-10,19,20-triazatetracyclo[13.5.2.1^2,6.0^18,21]tricosa-1(20),2(23),3,5,15(22),16,18(21)-heptaene]
< 10 nM	Cc1ccc2cc1OCCNCCCOc1ccc3[nH]nc-2c3c1 [Example 141, 5-methyl-7,14-dioxa-10,19,20-triazatetracyclo[13.5.2.1^2,6.0^18,21] tricosa-1(20),2,4,6(23),15,17,21-heptaene]
< 1000 nM	CN1CCCOc2ccc3[nH]nc(c3c2)-c2cncc(c2)OCCC1=O [Example 198, 11-methyl-7,15-dioxa-4,11,20,21-tetraazatetracyclo [14.5.2.1^2,6.0^19,22] tetracosa-1(21),2,4,6(24),16,18,22-heptaen-10-one]
< 10 nM	C[C@@H]1CCOCC(F)(F)Cn2cc(cn2)-c2n[nH]c3ccc(cc23)O1 [Example 120, (12R)-7,7-difluoro-12-methyl-9,13-dioxa-4,5,18,19-tetraazatetracyclo [12.5.2.1^2,5.0^17,20]docosa-1(19),2(22),3,14(21),15,17(20)-hexaene]
< 100 nM	c1ncc2cc1CCOCCOCCOc1ccc3[nH]nc-2c3c1 [Example 68, 9,12,15-trioxa-4,20,21-triazatetracyclo[14.5.2.1^2,6.0^19,22]tetracosa-1(21), 2(24),3,5,16(23),17,19(22)-heptaene]
< 100 nM	CN1CCCOc2ccc3[nH]nc(c3c2)-c2cncc(c2)OC(C)(C)C1=O [Example 197, 8,8,10-trimethyl-7,14-dioxa-4,10,19,20-tetraazatetracyclo[13.5.2.1^2,6.0^18,21]tricosa-1(20),2(23),3,5,15(22),16,18(21)-heptaen-9-one]

Source: patent publication US20240246992A1, “MACROCYCLIC LRRK2 KINASE INHIBITORS” (LES LABORATOIRES SERVIER, priority 2021, published 2024)
